Experimental data as given in paper PMC3758310, “The Human Cathelicidin LL-37 Has Antiviral Activity against Respiratory Syncytial Virus” (PLoS ONE, 2013).

Legend:
[1] = system: RSV-infected HEp-2 cells; test: MTT assay of viable metabolically active RSV-infected HEp-2 cells (cytopathic effects); assay type: cell-based; conditions: for viable HEp-2 cells surviving RSV infection at 5 days, pre-treatment condition: simultaneous RSV MOI = 0.005 and LL-37 0–50 µg/ml, scrambled LL-37 50 µg/ml or ribavirin 200 µM for 2 hours, 5 days without treatment; for protection of RSV-infected HEp-2 cells from cell death at 5 days, continuous treatment condition: treatment re-added after wash and present for 5 days, ribavirin 200 µM, LL-37 p<0.01, ribavirin p<0.001 vs untreated infected
Protocol: HEp-2 cells were treated with LL-37, a scrambled control LL-37 at 50 µg/ml or ribavirin (200 µM; Sigma Aldrich), in the presence or absence of simultaneous infection with RSV (MOI = 0.005). Cells were incubated for 2 hours at 37°C, washed and placed in fresh media. In some wells LL-37 or ribavirin was added again at this point (for “continuous treatment”). Cells were cultured at 37°C for 24 hours or 5 days, after which the number of viable metabolically active cells was assessed using an MTT assay (Sigma Aldrich) according to manufacturer's instructions (7.5 mg/ml, 37°C, 4 hours). Resulting formazan was dissolved in dimethylsulfoxide (Sigma Aldrich) and optical density was measured at 450 nm. Alternatively, cells simultaneously treated with or without LL-37 in presence or absence of RSV infection were allowed to dry for 10 minutes before they were fixed and permeabilised using ice-cold acetone/methanol (1∶1) for 10 minutes at 4°C. After a wash with PBS, cells were subjected to TUNEL assay using an In situ cell death kit (Roche Applied Science, UK) according to manufacturer's instructions. Cells were washed three times with PBS and 1 µg/ml DAPI was included in the second wash (3 minutes staining). Cells were examined by fluorescent microscopy, four representative images per well were captured using an EVOS fl imaging system (PEQLAB Ltd) and TUNEL positive and negative cells were quantified using ImageJ (http://rsbweb.nih.gov/ij/index.html).

[2] = system: HEp-2 cells; test: MTT assay of uninfected HEp-2 cells; assay type: cell-based, human; conditions: LL-37 ≤50 µg/ml, 2 hours, washed, n = 3-4
Protocol: (§1) HEp-2 cells were treated with LL-37, a scrambled control LL-37 at 50 µg/ml or ribavirin (200 µM; Sigma Aldrich), in the presence or absence of simultaneous infection with RSV (MOI = 0.005). Cells were incubated for 2 hours at 37°C, washed and placed in fresh media. In some wells LL-37 or ribavirin was added again at this point (for “continuous treatment”). Cells were cultured at 37°C for 24 hours or 5 days, after which the number of viable metabolically active cells was assessed using an MTT assay (Sigma Aldrich) according to manufacturer's instructions (7.5 mg/ml, 37°C, 4 hours). Resulting formazan was dissolved in dimethylsulfoxide (Sigma Aldrich) and optical density was measured at 450 nm. Alternatively, cells simultaneously treated with or without LL-37 in presence or absence of RSV infection were allowed to dry for 10 minutes before they were fixed and permeabilised using ice-cold acetone/methanol (1∶1) for 10 minutes at 4°C. After a wash with PBS, cells were subjected to TUNEL assay using an In situ cell death kit (Roche Applied Science, UK) according to manufacturer's instructions. […] Cells were examined by fluorescent microscopy, four representative images per well were captured using an EVOS fl imaging system (PEQLAB Ltd) and TUNEL positive and negative cells were quantified using ImageJ (http://rsbweb.nih.gov/ij/index.html).

[3] = system: RSV viral particles; test: Direct viral inactivation assay; assay type: cell-based, RSV strain A2
Protocol: A modified viral inactivation assay was performed. 1 ml RSV (PFU = 2×10^3, equivalent to MOI = 0.05) was mixed with 25 µg/ml LL-37, followed by immediate 10-fold dilution in serum-free medium to reach sub-therapeutic concentrations of LL-37 (2.5 µg/ml) and RSV MOI = 0.005. 25 µg/ml scrambled LL-37 or PBS were used as negative controls. HEp-2 monolayers were infected with this virus/peptide mixture for 2 hours then washed, before cells were cultured in serum-free medium for 24 hours. Fixed monolayers were subjected to immunoplaque assay.

[4] = system: RSV; test: Immunoplaque assay of RSV-infected 16HBE14o- cells at 24 hours; assay type: cell-based, RSV strain A2; conditions: RSV MOI = 0.005, simultaneous peptide and virus 2 hours, washed, n = 3-5
Protocol: (§2) HEp-2 cells (ATCC CCL-23), Vero cells (ATCC CCL-81) and 16HBE14o^- transformed human bronchial epithelial cells (a kind gift from Dieter Gruenert, University of California) were cultured in DMEM/F12 (Gibco/Life Technologies Ltd, Paisley, UK) or RPMI (Gibco) respectively, supplemented with 2 mM L-glutamine (PAA Laboratories, Yeovil, UK) and 10% FCS (Biosera, East Sussex, UK), at 37°C and 5% CO2. 16HBE14o^- cells were cultured on wells previously coated with a basement layer of collagen IV (5 µg/ml), fibronectin (10 µg/ml) and bovine serum albumin (100 µg/ml) (all Sigma Aldrich, Dorset, UK).
(§3) An immunoplaque assay (based on) was used to quantify RSV infected cells. […] Peptide treatments were therefore primarily evaluated at RSV MOI = 0.005, however higher MOIs (up to 1) were also tested and similar effects of peptides were observed (data not shown). […] Cells were stained using 3-amino-ethylcarbazole substrate (Invitrogen/Life technologies) according to manufacturer's instructions for 15 minutes, washed 3 times with PBS and infected RSV positive foci were quantified by light microscopy, counting 3–4 wells per condition. […] Quantification was performed using the ImageJ plugin Treshold_colour to measure the percentage of cells positive for RSV infection. 3 wells were assessed per condition, using 4 random fields of view captured per well. […]

[5] = system: RSV; test: Immunoplaque assay of RSV-infected Vero cells (type I interferon deficient) at 24 hours; assay type: cell-based, RSV strain A2; conditions: 25 µg/ml simultaneous with RSV MOI = 0.005 for 2 hours, p<0.001, n = 3-5
Protocol: as §2, §3

[6] = system: RSV; test: Spread of RSV infection in HEp-2 cultures over 48 and 72 hours (immunoplaque, image analysis); assay type: cell-based, RSV strain A2; conditions: washed, 48 or 72 hours, n = 3
Protocol: (§4) An immunoplaque assay (based on) was used to quantify RSV infected cells. Optimisation of the infection protocol was conducted using serial dilutions of RSV to assess the PFU of propagated virus stocks and establish an optimal MOI of 0.005 that allowed reliable counting of individual infected cells (approximately 100–250 per well) in a control infected culture at 24 hours. Peptide treatments were therefore primarily evaluated at RSV MOI = 0.005, however higher MOIs (up to 1) were also tested and similar effects of peptides were observed (data not shown). […] Cells were stained using 3-amino-ethylcarbazole substrate (Invitrogen/Life technologies) according to manufacturer's instructions for 15 minutes, washed 3 times with PBS and infected RSV positive foci were quantified by light microscopy, counting 3–4 wells per condition. […] Quantification was performed using the ImageJ plugin Treshold_colour to measure the percentage of cells positive for RSV infection. 3 wells were assessed per condition, using 4 random fields of view captured per well. To assess the production of infectious viral particles, supernatants were serially diluted and transferred to fresh HEp-2 monolayers, incubated for 2 hours at 37°C, washed, incubated for a further 24 hours and then assessed by immunoplaque assay.

[7] = system: HEp-2 cells; test: TUNEL assay of cell death in HEp-2 cells; assay type: cell-based, human; conditions: in the presence or absence of RSV or LL-37, 24 hours after infection; data not shown
Protocol: as §1

[8] = system: RSV; test: Production of new infectious viral particles (supernatant transfer to fresh HEp-2 cells, immunoplaque assay); assay type: cell-based, RSV strain A2
Protocol: as §4

[9] = system: RSV; test: Immunoplaque assay of RSV-infected HEp-2 cells at 24 hours; assay type: cell-based, RSV strain A2; conditions: for reduction in number of infected cells: then 2 hours infection
Protocol: RSV strain A2 (VR-1540) was purchased from ATCC. RSV was propagated in HEp-2 cells by infecting 5×10^6 cells that were allowed to grow on confluent overnight in serum-free VP-SFM media (Gibco) for 2 hours with 0.1 plaque forming units (PFU) followed by removal of inoculum. Cells were then incubated for 24 hours in 10% FCS Gold (PAA Laboratories) supplemented VP-SFM. Cells were then incubated for a further 5 days in 2% FCS Gold supplemented VP-SFM, cells were harvested and supernatant was snap-frozen and stored at −80°C.
An immunoplaque assay (based on) was used to quantify RSV infected cells. Optimisation of the infection protocol was conducted using serial dilutions of RSV to assess the PFU of propagated virus stocks and establish an optimal MOI of 0.005 that allowed reliable counting of individual infected cells (approximately 100–250 per well) in a control infected culture at 24 hours. Peptide treatments were therefore primarily evaluated at RSV MOI = 0.005, however higher MOIs (up to 1) were also tested and similar effects of peptides were observed (data not shown). For experimental assessment of the antiviral effects of peptides, cells were seeded at 2×10^4 per well in 96-well plates and cultured overnight, then washed and infected, in fresh serum-free medium. After 2 hours, inoculum was removed and cells were cultured in fresh medium for 24, 48 or 72 hours before analysis. Peptides were added before, after or concomitantly with RSV infection as described for individual experiments. Monolayers were fixed in absolute methanol/2% hydrogen peroxide solution for 30 minutes and washed twice with PBS. Cells were exposed to monoclonal biotinylated anti-RSV antibody in 5% BSA/PBS for 1 hour (1∶200, AbD Serotec, Kidlington, UK), washed twice with PBS and were incubated with extravidin peroxidase in 5% BSA/PBS for 30 minutes (1∶500, Sigma Aldrich). Cells were stained using 3-amino-ethylcarbazole substrate (Invitrogen/Life technologies) according to manufacturer's instructions for 15 minutes, washed 3 times with PBS and infected RSV positive foci were quantified by light microscopy, counting 3–4 wells per condition. For later timepoint analysis (48 and 72 hours post infection with RSV MOI = 0.0005), fixed and stained monolayers were examined by light microscopy and images were captured using an EVOS fl imaging system (PEQLAB Ltd, UK). Quantification was performed using the ImageJ plugin Treshold_colour to measure the percentage of cells positive for RSV infection. 3 wells were assessed per condition, using 4 random fields of view captured per well. To assess the production of infectious viral particles, supernatants were serially diluted and transferred to fresh HEp-2 monolayers, incubated for 2 hours at 37°C, washed, incubated for a further 24 hours and then assessed by immunoplaque assay.

## NC(=O)c1ncn([C@@H]2O[C@H](CO)[C@@H](O)[C@H]2O)n1 [ribavirin, reference compound]
[1]; washed, n = 3-4
  viable HEp-2 cells surviving RSV infection at 5 days, pre-treatment condition: Neither scrambled LL-37 nor the antiviral ribavirin had any direct effect
[1]
  protection of RSV-infected HEp-2 cells from cell death at 5 days, continuous treatment condition: significant protection of epithelial cells from cell death

## LL-37: active form of the sole human cathelicidin hCAP-18; cationic host defence peptide
[2]
  number of metabolically active uninfected HEp-2 cells after 5 days: did not affect the number of metabolically active HEp-2 cells
[3]; RSV MOI = 0.005 pre-mixed with 2.5 µg/ml LL-37 before immediate use, HEp-2, 24 hours
  antiviral effect of virus and cell exposure to 2.5 µg/ml LL-37: no significant effects
[3]; RSV MOI = 0.05 pre-mixed with 25 µg/ml, immediate 1:10 dilution, HEp-2 infected 2 hours, 24 hours, immunoplaque, n≥3
  antiviral effect of virus exposure to 25 µg/ml peptide followed by 1 in 10 dilution (cell exposure 2.5 µg/ml): significant antiviral effects
[4]
  antiviral effect (number of RSV-infected cells relative to untreated infected cells): The same effect was observed
[5]
  antiviral activity against RSV in Vero cells: identical significant antiviral activity
[6]; HEp-2, RSV MOI = 0.0005 2 hours, 25 µg/ml LL-37 1 hour
  spread of infection beyond initially infected cells, LL-37 added after RSV infection (virus first): spread of infection beyond the cells initially infected was minimised
[6]; HEp-2, RSV MOI = 0.0005, 25 µg/ml peptide 2 hours
  spread of infection beyond initially infected cells, peptide added simultaneously with RSV: spread of infection beyond the cells initially infected was minimised
[7]
  TUNEL positive HEp-2 cells: 0.5–1.5%
[8]; 25 µg/ml LL-37 replaced after wash, 3 days, p<0.05
  infectivity of supernatant at day 3 with LL-37 remaining in the media (continuous): reducing infectivity up to day 3
[8]; HEp-2, RSV with 25 µg/ml peptide 2 hours, washed, fresh media with or without peptide, supernatant infectivity on fresh HEp-2, p<0.001, n = 3
  production of new infectious viral particles: very substantially, fewer new infectious viral particles
[1]; LL-37 ≤50 µg/ml, RSV MOI = 0.005, 2 hours, washed, 24 hours, OD 450 nm, n = 3-4
  number of metabolically active RSV-infected HEp-2 cells at 24 hours: did not have any substantial effect
[1]; washed, n = 3-4
  viable HEp-2 cells surviving RSV infection at 5 days, pre-treatment condition: significantly more viable HEp-2 cells surviving RSV infection in a dose-dependent manner
[1]
  protection of RSV-infected HEp-2 cells from cell death at 5 days, continuous treatment condition: significant protection of epithelial cells from cell death
[9]; 25 µg/ml LL-37, in vitro
  decrease in the number of initially infected cells: approximately 1 log
[9]; 25 µg/ml simultaneous with RSV MOI = 0.005 for 2 hours, 24 hours, p<0.001, n = 3-5
  antiviral activity against RSV in HEp-2 cells: identical significant antiviral activity
[9]; HEp-2, RSV MOI = 0.005, simultaneous peptide and virus 2 hours, washed, 24 hours at 37°C, p<0.05 vs virus alone, mean of n = 3-5
  LL-37 concentration giving significant, concentration-dependent reduction in infectivity (number of RSV-infected cells): ≥ 10 µg/mL
[9]; HEp-2, RSV MOI = 0.005 for 2 hours, washed, then 1 hour LL-37, infected cells at 24 hours
  antiviral effect, LL-37 treatment delayed until 2 hours after viral infection (Virus first): loss of the antiviral effect
[9]; HEp-2, RSV preincubated with 25 µg/ml LL-37 for 1 hour at 4°C, 24 hours, p<0.001
  reduction in number of infected cells: approximately 1 log
[9]; HEp-2, RSV preincubated with 25 µg/ml LL-37 for 1 hour at 37°C, 24 hours, p<0.01
  reduction in number of infected cells: approximately 1 log
[9]; HEp-2, simultaneous RSV MOI = 0.005 and peptide at 1, 10 and 25 µg/ml for 2 hours, washed, 24 hours, n = 3
  antiviral activity of full length and 22-mer partial peptides (number of infected cells): significant antiviral activity
[9]; HEp-2 pre-treated 25 µg/ml LL-37 1 hour, washed, RSV MOI = 0.005 at 1 or 3 hours, p<0.001, n≥3
  protection against RSV infection when infection delayed up to 3 hours after LL-37 treatment and cell washing: significant protection against RSV infection
[9]; HEp-2 pre-treated 25 µg/ml LL-37 1 hour, washed, RSV MOI = 0.005 at 24 hours
  protection against RSV infection when infection delayed 24 hours after LL-37 treatment and cell washing: no protection evident
[9]; HEp-2 treated with LL-37 1 hour, washed, 2 hour RSV infection MOI = 0.005, 24 hours, p<0.001
  RSV infection after pre-incubation of cells with LL-37 and washing (LL-37 first): significantly less RSV infection
